Measured values published in article PMC12586182 (Frontiers in Oncology, 2025).
pIC50: −log10 of the molar value.

Tests used:
CaMK2β = target: T1, CaMK2β (Homo sapiens, UniProt Q13554); assay: Kinase panel profiling at 1 µmol/L (mobility shift assay, Carna); assay type: biochemical; settings: 1 µmol/L of BTK inhibitor
T1 construct: purchased Carna Biosciences

HIPK2 = target: T2, HIPK2 (Homo sapiens, UniProt Q9H2X6); assay: as above; assay type: biochemical; settings: 1 µmol/L of BTK inhibitor
T2 construct: purchased Carna Biosciences

CRIK = target: T3, CRIK (Homo sapiens, UniProt O14578); assay: as above; assay type: biochemical; settings: 1 µmol/L of BTK inhibitor
T3 construct: purchased Carna Biosciences

TIE2 = target: T4, TIE2 (Homo sapiens, UniProt Q02763); assay: as above; assay type: biochemical; settings: 1 µmol/L of BTK inhibitor
T4 construct: purchased Carna Biosciences

LTK = target: T5, LTK (Homo sapiens, UniProt P29376); assay: as above; assay type: biochemical; settings: 1 µmol/L of BTK inhibitor
T5 construct: purchased Carna Biosciences
T5 sequence (P29376 17-864): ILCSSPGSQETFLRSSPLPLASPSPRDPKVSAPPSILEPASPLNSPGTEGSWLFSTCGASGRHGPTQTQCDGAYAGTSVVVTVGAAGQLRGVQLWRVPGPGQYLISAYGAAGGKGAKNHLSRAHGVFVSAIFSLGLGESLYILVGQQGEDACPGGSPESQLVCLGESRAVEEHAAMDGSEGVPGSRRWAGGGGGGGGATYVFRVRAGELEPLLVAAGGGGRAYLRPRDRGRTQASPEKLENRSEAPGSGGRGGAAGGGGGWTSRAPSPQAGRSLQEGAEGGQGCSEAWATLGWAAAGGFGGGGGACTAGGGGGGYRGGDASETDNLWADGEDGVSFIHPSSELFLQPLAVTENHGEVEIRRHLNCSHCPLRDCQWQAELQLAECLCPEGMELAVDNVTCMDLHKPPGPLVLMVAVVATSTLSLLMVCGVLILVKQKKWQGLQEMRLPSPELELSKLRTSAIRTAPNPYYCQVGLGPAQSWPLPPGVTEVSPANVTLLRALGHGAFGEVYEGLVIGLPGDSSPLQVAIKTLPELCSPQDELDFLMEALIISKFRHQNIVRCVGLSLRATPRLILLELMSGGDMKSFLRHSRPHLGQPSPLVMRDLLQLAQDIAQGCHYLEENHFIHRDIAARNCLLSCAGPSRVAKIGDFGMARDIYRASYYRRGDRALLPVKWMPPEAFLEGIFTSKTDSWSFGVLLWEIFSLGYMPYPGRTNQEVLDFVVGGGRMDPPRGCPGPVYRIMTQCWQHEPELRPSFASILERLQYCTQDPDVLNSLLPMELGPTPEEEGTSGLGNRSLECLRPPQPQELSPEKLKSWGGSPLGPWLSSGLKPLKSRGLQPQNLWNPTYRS

IGF1R = target: T6, IGF1R (Homo sapiens, UniProt P08069); assay: as above; assay type: biochemical; settings: 1 µmol/L of BTK inhibitor
T6 construct: purchased Carna Biosciences

MST2 = target: T7, MST2 (Homo sapiens, UniProt Q13188); assay: as above; assay type: biochemical; settings: 1 µmol/L of BTK inhibitor
T7 construct: purchased Carna Biosciences
T7 sequence (Q13188 1-491): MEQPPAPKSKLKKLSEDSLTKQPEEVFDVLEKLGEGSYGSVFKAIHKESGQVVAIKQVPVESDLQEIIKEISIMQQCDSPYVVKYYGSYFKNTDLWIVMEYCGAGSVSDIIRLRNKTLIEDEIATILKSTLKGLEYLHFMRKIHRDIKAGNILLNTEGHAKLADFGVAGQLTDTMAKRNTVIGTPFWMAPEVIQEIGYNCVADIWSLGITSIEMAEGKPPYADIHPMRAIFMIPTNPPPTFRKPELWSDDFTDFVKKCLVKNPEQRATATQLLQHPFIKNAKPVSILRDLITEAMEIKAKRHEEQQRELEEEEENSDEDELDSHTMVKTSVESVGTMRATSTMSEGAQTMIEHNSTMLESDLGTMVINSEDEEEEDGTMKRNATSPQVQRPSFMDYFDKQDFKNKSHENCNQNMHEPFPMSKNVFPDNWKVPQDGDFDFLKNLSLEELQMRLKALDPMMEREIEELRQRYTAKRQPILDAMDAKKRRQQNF

CDK7/CycH/MAT1 = target: T8, CDK7/CycH/MAT1 (Homo sapiens, UniProt P50613); assay: as above; assay type: biochemical; settings: 1 µmol/L of BTK inhibitor
T8 construct: purchased Carna Biosciences

PKCβ1 = target: T9, PKCβ1 (Homo sapiens, UniProt P05771); assay: as above; assay type: biochemical; settings: 1 µmol/L of BTK inhibitor
T9 construct: purchased Carna Biosciences
T9 sequence (P05771 whole entry): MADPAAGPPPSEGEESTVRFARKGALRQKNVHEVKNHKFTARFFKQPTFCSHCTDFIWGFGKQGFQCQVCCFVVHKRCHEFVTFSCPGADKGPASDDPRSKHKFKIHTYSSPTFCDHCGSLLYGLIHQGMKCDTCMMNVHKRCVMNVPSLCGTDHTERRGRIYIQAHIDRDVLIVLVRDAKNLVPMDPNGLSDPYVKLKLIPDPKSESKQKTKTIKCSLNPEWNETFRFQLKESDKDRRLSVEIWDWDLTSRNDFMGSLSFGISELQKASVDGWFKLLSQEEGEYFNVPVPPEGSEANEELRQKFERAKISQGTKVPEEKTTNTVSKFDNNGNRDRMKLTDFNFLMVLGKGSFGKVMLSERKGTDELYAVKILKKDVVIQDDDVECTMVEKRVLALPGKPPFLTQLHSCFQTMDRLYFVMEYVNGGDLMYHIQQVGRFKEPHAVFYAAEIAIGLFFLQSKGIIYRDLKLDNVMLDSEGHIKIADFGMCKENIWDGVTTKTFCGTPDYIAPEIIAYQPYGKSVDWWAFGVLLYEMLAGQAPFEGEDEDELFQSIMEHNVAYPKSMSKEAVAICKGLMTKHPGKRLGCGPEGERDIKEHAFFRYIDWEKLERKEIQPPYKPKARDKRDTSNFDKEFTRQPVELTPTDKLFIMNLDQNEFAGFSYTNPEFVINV

AKT1 = target: T10, AKT1 (Homo sapiens, UniProt P31749); assay: as above; assay type: biochemical; settings: 1 µmol/L of BTK inhibitor
T10 construct: purchased Carna Biosciences
T10 sequence (P31749 whole entry): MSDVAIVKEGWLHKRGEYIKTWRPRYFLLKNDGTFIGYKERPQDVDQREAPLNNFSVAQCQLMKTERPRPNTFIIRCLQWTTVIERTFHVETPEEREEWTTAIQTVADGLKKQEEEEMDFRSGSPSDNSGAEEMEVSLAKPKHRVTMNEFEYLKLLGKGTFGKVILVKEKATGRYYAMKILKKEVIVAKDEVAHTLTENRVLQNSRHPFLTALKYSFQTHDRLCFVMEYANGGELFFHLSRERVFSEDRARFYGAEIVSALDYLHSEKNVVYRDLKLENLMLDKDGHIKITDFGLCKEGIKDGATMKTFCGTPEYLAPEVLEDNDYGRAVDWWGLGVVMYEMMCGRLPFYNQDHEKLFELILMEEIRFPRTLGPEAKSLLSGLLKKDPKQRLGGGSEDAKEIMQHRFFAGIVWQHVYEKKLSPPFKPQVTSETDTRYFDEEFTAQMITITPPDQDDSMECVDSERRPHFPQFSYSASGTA

FGFR3 = FGFR3 (Homo sapiens, UniProt P22607); assay: Kinase enzyme activity assay (mobility shift assay, Carna); settings: for Percentage inhibition of kinase enzyme activity: FGFR3, 1 µmol/L of BTK inhibitor
TEC = target: T11, TEC (Homo sapiens, UniProt P42680); assay: as above; settings: for Percentage inhibition of kinase enzyme activity: TEC, 1 µmol/L of BTK inhibitor
T11 sequence (P42680 1-631): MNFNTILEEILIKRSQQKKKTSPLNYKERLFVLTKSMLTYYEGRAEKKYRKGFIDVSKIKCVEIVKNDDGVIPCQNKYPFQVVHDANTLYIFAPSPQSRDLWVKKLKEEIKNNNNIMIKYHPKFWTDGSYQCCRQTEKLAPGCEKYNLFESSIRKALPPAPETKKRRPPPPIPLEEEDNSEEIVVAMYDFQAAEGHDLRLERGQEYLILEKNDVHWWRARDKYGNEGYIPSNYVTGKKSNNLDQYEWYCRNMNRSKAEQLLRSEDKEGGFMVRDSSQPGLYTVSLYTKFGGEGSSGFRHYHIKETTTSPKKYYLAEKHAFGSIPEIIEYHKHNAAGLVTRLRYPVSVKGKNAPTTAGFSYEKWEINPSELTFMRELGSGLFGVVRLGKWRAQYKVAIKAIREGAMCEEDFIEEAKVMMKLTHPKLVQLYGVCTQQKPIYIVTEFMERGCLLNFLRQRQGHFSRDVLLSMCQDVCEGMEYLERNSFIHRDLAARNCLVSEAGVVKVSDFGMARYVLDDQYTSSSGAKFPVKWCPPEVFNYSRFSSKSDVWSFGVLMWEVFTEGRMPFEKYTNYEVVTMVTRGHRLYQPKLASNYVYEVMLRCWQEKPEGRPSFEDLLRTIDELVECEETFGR

JNK2 = target: T12, JNK2 (Homo sapiens, UniProt P45984); assay: Kinase panel profiling at 1 µmol/L (mobility shift assay, Carna); assay type: biochemical; settings: 1 µmol/L of BTK inhibitor
T12 construct: purchased Carna Biosciences
T12 sequence (P45984 whole entry): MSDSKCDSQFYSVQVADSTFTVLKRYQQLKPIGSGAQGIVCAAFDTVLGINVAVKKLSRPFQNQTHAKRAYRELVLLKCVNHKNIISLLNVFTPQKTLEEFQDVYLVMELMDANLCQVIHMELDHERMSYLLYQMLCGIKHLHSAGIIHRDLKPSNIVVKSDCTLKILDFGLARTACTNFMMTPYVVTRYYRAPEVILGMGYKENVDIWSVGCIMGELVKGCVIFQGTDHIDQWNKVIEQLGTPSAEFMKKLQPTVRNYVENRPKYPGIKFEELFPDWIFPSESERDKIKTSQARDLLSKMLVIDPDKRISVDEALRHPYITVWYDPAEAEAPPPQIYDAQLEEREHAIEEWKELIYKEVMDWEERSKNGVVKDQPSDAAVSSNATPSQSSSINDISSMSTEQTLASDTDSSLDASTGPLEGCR

PHKG2 = target: T13, PHKG2 (Homo sapiens, UniProt P15735); assay: as above; assay type: biochemical; settings: 1 µmol/L of BTK inhibitor
T13 construct: purchased Carna Biosciences
T13 sequence (P15735 1-406): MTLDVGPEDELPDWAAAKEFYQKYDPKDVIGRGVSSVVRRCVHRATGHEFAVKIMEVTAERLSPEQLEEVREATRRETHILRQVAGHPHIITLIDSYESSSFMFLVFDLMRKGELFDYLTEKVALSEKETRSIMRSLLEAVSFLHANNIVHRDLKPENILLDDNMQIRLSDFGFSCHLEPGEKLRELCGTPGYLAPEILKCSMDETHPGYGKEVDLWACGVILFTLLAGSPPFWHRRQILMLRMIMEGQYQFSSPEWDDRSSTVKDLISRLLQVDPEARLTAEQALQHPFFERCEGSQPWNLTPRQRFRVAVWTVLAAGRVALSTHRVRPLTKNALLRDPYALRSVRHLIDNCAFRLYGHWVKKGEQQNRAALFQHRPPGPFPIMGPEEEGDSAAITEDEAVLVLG

CK1γ2 = target: T14, CK1γ2 (Homo sapiens, UniProt P78368); assay: as above; assay type: biochemical; settings: 1 µmol/L of BTK inhibitor
T14 construct: purchased Carna Biosciences
T14 sequence (P78368 whole entry): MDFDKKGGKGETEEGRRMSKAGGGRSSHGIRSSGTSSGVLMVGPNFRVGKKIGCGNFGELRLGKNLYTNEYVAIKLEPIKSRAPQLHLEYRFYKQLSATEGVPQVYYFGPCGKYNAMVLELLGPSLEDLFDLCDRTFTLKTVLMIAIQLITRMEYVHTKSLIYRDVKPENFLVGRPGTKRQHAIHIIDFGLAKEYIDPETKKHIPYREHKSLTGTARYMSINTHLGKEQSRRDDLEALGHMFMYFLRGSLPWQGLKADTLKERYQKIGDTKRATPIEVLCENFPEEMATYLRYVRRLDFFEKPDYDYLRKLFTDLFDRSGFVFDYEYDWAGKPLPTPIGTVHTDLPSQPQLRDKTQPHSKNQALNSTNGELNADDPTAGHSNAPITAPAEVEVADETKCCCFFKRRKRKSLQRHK

BUB1/BUB3 = target: T15, BUB1/BUB3 (Homo sapiens, UniProt O43683); assay: as above; assay type: biochemical; settings: 1 µmol/L of BTK inhibitor
T15 construct: purchased Carna Biosciences
T15 sequence (O43683 whole entry): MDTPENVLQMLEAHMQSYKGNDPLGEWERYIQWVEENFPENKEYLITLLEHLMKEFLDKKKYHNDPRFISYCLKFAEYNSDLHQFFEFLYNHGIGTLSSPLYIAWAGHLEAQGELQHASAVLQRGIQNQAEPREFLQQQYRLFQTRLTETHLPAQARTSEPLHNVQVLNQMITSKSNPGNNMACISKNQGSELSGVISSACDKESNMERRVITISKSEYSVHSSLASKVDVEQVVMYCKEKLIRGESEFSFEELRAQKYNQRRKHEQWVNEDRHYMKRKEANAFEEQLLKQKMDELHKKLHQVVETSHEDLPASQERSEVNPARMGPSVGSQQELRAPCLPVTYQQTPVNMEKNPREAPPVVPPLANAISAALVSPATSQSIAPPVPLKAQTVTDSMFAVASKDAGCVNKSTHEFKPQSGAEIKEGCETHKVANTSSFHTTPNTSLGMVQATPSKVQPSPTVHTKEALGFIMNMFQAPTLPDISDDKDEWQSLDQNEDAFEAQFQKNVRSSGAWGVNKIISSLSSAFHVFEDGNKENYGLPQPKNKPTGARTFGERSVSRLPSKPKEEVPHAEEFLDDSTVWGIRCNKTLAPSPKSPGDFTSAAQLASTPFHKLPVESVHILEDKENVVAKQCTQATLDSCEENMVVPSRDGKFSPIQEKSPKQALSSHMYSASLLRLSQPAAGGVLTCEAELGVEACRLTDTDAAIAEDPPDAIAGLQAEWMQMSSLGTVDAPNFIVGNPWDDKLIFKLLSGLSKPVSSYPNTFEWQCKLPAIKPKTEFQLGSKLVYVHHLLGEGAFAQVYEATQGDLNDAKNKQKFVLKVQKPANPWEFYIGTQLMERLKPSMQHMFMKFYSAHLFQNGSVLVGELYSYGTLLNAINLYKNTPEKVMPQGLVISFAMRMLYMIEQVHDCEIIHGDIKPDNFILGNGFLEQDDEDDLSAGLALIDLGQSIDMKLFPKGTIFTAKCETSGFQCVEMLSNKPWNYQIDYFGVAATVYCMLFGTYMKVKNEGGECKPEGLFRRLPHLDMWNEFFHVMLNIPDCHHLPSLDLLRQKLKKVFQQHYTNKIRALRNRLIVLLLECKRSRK
T15 sequence (O43684 whole entry partner): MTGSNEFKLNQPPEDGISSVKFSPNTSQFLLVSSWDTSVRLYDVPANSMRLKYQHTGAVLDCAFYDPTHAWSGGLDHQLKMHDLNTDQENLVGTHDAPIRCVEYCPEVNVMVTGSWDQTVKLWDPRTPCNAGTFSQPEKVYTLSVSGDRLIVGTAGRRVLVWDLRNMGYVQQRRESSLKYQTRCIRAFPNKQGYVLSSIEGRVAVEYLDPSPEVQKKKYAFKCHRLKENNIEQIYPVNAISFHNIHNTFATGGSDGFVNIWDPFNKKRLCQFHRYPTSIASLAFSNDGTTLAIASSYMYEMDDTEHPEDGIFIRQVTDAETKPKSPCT

T1 sequence (Q13554 whole entry): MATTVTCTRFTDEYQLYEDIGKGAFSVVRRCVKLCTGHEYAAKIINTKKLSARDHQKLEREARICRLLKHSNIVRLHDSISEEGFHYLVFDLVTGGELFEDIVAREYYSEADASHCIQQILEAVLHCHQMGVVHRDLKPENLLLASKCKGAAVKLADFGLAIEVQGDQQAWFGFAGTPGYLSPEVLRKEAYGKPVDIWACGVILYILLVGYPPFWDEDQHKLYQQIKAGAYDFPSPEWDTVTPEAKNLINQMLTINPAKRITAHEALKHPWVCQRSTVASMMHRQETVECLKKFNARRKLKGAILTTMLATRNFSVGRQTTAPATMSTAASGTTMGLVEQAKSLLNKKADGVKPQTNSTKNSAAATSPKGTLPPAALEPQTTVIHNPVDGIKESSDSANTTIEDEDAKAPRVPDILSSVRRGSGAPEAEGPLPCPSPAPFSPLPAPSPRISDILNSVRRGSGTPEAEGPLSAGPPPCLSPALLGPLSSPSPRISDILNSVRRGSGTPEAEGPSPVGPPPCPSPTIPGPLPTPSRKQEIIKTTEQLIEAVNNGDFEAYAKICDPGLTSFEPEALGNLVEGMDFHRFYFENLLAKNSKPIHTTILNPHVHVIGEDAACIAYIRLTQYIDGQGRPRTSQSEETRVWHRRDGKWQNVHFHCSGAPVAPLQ

Row | SMILES | Percentage inhibition of kinase enzyme activity (CaMK2β) | Percentage inhibition of kinase enzyme activity (HIPK2) | Percentage inhibition of kinase enzyme activity (CRIK) | Percentage inhibition of kinase enzyme activity (TIE2) | Percentage inhibition of kinase enzyme activity (LTK) | Percentage inhibition of kinase enzyme activity (IGF1R) | Percentage inhibition of kinase enzyme activity (MST2) | Percentage inhibition of kinase enzyme activity (CDK7/CycH/MAT1) | Percentage inhibition of kinase enzyme activity (PKCβ1) | Percentage inhibition of kinase enzyme activity (AKT1) | Percentage inhibition of kinase enzyme activity (FGFR3) | Percentage inhibition of kinase enzyme activity (TEC) | Percentage inhibition of kinase enzyme activity (JNK2) | Percentage inhibition of kinase enzyme activity (PHKG2) | Percentage inhibition of kinase enzyme activity (CK1γ2) | Percentage inhibition of kinase enzyme activity (BUB1/BUB3) | pIC50 (FGFR3) | pIC50 (TEC) | inhibition at 1 µM (TEC; read-out: Inhibition of TEC)
1 | CC#CC(=O)N1CCC[C@H]1c1nc(-c2ccc(C(=O)Nc3ccccn3)cc2)c2c(N)nccn12 [acalabrutinib] | -1.09% | -11.44% | -5.14% | -5.36% | 10.06% | 0.47% | -3.46% | 5.25% | -10.97% | -6.23% | -1.31% | 95.77% | -1.85% | 0.00605% | -7.07% | 5.51% | – | – | –
2 | C=CC(=O)N1CCC([C@@H]2CCNc3c(C(N)=O)c(-c4ccc(Oc5ccccc5)cc4)nn32)CC1 [zanubrutinib] | – | – | – | – | 55.84% | 4.03% | – | – | – | – | 6.11% | – | – | – | – | – | – | – | –
3 | O=C(c1ccc(Oc2ccccc2)cc1Cl)c1c[nH]c2ncnc(N[C@@H]3CC[C@@H](CO)OC3)c12 [nemtabrutinib] | 2.18% | 3.26% | -5.26% | 99.74% | – | 99.20% | 86.96% | -12.60% | -3.07% | -8.43% | 86.25% | 98.70% | 4.23% | 5.39% | -5.17% | -0.62% | 7.15 | 9.12 | –
4 | COc1ccc(F)cc1C(=O)NCc1ccc(-c2nn([C@@H](C)C(F)(F)F)c(N)c2C(N)=O)cc1 [pirtobrutinib] | -2.89% | 0.19% | -3.77% | -3.49% | -0.40% | 0.28% | 6.74% | -4.77% | 5.78% | -12.80% | 1.40% | 87.84% | 7.41% | 7.27% | 1.27% | 3.40% | – | – | > 75%
5 | C=CC(=O)N1CCC[C@@H](n2nc(-c3ccc(Oc4ccccc4)cc3)c3c(N)ncnc32)C1 [ibrutinib] | -2.56% | 2.01% | -0.17% | 29.04% | 2.76% | 7.45% | 16.65% | 4.94% | -2.90% | -9.41% | 81.85% | 91.92% | -2.83% | 0.82% | 1.01% | 5.19% | – | – | –
